Key:
Type in all cases: functional, cell-based
[1] = target: T1, Broad substrate specificity ATP-binding cassette transporter ABCG2 (Homo sapiens, UniProt Q9UNQ0); experiment: TP_TRANSPORTER: efflux in BCRP-expressing EPG85-257 cells
T1 sequence (Q9UNQ0 whole entry): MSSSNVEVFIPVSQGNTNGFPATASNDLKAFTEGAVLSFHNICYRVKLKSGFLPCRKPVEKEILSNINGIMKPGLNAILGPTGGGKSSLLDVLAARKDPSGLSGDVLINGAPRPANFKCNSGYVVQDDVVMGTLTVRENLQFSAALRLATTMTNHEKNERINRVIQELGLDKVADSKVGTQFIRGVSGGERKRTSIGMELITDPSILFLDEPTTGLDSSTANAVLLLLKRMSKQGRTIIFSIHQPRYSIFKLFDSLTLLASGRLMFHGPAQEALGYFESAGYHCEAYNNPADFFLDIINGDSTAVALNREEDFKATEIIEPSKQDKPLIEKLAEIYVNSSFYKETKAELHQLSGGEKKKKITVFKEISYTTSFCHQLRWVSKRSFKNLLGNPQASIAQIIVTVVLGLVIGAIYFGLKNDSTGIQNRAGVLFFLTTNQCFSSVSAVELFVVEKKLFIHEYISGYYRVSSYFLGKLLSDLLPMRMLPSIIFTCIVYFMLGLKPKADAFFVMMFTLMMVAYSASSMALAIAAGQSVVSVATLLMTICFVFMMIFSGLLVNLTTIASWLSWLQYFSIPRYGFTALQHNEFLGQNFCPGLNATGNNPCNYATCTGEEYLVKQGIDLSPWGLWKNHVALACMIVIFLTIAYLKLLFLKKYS

[2] = target: T2, ATP-dependent translocase ABCB1 (Homo sapiens, UniProt P08183); experiment: TP_TRANSPORTER: efflux in MDR1-expressing EPG85-257 cells
T2 sequence (P08183 whole entry): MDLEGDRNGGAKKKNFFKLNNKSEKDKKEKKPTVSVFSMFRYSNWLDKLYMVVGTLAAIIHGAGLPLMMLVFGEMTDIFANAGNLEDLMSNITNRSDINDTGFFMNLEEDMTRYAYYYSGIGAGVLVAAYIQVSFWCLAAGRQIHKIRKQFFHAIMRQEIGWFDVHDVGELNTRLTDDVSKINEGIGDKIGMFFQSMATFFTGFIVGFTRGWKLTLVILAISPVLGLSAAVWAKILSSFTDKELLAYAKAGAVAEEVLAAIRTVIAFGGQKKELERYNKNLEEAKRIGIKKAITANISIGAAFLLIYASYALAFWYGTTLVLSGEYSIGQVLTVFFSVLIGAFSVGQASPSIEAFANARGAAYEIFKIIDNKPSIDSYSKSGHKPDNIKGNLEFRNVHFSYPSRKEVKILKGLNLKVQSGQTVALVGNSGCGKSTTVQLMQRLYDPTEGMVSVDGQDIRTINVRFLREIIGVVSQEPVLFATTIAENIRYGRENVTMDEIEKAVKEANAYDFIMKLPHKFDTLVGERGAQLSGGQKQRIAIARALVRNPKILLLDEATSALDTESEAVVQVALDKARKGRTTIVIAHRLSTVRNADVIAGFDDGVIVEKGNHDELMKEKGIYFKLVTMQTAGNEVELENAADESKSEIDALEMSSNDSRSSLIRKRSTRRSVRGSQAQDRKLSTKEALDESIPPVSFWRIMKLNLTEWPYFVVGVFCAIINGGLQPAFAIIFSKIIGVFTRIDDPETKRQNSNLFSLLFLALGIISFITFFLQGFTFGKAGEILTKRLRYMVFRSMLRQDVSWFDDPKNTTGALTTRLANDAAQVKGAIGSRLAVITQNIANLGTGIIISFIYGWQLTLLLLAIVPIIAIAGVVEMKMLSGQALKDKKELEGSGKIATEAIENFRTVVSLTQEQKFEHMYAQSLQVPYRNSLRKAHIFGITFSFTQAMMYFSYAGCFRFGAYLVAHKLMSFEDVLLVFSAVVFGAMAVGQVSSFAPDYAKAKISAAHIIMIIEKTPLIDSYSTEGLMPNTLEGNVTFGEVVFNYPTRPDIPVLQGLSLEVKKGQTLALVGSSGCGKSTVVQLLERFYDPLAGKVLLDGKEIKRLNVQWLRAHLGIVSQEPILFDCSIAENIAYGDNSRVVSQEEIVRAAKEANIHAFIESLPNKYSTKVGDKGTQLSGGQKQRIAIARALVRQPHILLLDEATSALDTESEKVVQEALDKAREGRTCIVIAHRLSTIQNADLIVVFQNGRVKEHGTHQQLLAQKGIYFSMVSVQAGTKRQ

[3] = target: T1, Broad substrate specificity ATP-binding cassette transporter ABCG2; experiment: TP_TRANSPORTER: inhibition of C6-NBD-PS efflux in BCRP-expressing EPG85-257 cells
[4] = target: T2, ATP-dependent translocase ABCB1; experiment: TP_TRANSPORTER: inhibition of C6-NBD-PS efflux in MDR1-expressing EPG85-257 cells

Row | SMILES | Activity [1] | Activity [2] | Activity [3] | Activity [4]
1 | CCCCCCCCCCCCCCCC(=O)OCC(COP(=O)([O-])OCC[N+](C)(C)C)OC(=O)CCCCCNc1ccc([N+](=O)[O-])c2nonc12 (stereo unspecified) | substrate [] | – | – | –
2 | CCCCCCCC/C=C\CCCCCCCC(=O)OC(COC(=O)CCCCCCC/C=C/CCCCCCCC)COP(=O)(O)OC[C@H](Nc1ccc([N+](=O)[O-])c2nonc12)C(=O)O (stereo partly specified) | substrate [] | substrate [] | – | –
3 | COc1cc2c(cc1OC)CN(CCc1ccc(NC(=O)c3cccc4c(=O)c5cccc(OC)c5[nH]c34)cc1)CC2.Cl [ELACRIDAR HYDROCHLORIDE] | – | – | inhibitor [] | –
4 | COc1ccc2c(C[C@@H]3NC(=O)[C@@H]4CCCN4C3=O)c(CC=C(C)C)[nH]c2c1 [TRYPROSTATIN A] | – | – | inhibitor [] | inhibitor []
